The results in this text go back to patent US7074801B1, “Nitrogen-containing condensed cyclic compound having a pyrazolyl group as a substituent group and pharmaceutical composition thereof” (Eisai Co., Ltd., priority 2001, dated 2006).

Counter-ions that a name gives are not always drawn.

The assay has as its system STAT6. Put plainly: Inhibitory test on STAT6 activation: IL-4-induced alkali phosphatase STAT6 reporter in 293 cells stably expressing the STAT6 gene and STAT6 reporter gene. The assay is classed as cell-based. The conditions noted are these: HEK293; Table 1; 1 ng/ml human recombinant IL-4, 16 hours, 293 cells with STAT6 reporter; read-out: Inhibitory activity IC50 (concentration at which the alkali phosphatase activity induced by IL-4 was inhibited by 50%). On the procedure:
The inhibitory action of the present compound on activation of STAT6 was evaluated according to the following experiments.
1) Construction of a STAT6 Reporter Gene
An oligonucleotide of SEQ ID NO:1 in which three STAT6-binding regions on a human immunoglobulin germline E gene promoter had been linked was mixed with its complementary chain, thermally denatured and annealed, and 5′- and 3′-ends thereof were cleaved with restriction enzymes Kpn I (Code No. 1068A, Takara Shuzo) and Xba I (Code No. 1093A, Takara Shuzo) respectively, and the resulting fragment was cloned into a Kpn I/Xba I site of pUG-BGH-PLAP vector (described in Molecular Pharmacology, 49:860–873, 1996). To induce a basic transcriptional factor, a TK promoter region of herpes virus was cloned into an Xba I/Hind III (Code No. 1060A, Takara Shuzo) site of the pUG-BGH-PLAP vector. To obtain a stably expressing cell strain, a neomycin resistance gene (PGK-neo expression cassette) was integrated with an Sal I (Code No. 1080A, Takara Shuzo) of this vector. Cloning of the TK promoter and PGK-neo expression cassette was carried out according to Molecular Pharmacology, 49:860–873, 1996.
The underlined sites are a Kpn I recognition site and Xba I recognition site respectively. 2) Construction of an STAT6 Expression Vector
An oligonucleotide of SEQ ID NO:2 containing an initiation codon of STAT6 gene and an oligonucleotide of SEQ ID NO:3 containing a stop codon were used, and total RNA was prepared from human peripheral blood cells by using RNeasy Mini kit (Code No. 74104, OIAGEN). Then, cDNA was prepared by reverse transcription reaction using Takara RNA LA PCR kit (Code No. RR012A, Takara Shuzo) and then subjected to PCR reaction with primers of SEQ ID NOS:2 and 3, to amplify the STAT6 gene. • (SEQ ID NO:2) 5′-[…]-3′ The underlined site is an EcoR I recognition site. • (SEQ ID NO:3) 5′-[…]-3′ The underlined site is an Xho I recognition site.
The PCR product was digested with EcoR I (Code No. 1040A, Takara Shuzo) and Xho I (1094A, Takara Shuzo), and the digested fragment was isolated on an agarose gel. The isolated fragment was integrated into a vector fragment obtained by digesting pcDNA3.1 (+) (Code No. U790-20, Invitrogen) vector with EcoRI/Xho I.
3) Introduction of the Gene and Preparation of a Stably Expressing Cell Strain
Human fetal kidney-derived 293 cells (American Type Culture Collection), 3.0×10^5 cells, were spread on a Falcon tissue culture 6-well plate (Code No. 35-3046, Becton Dickinson) and cultured overnight. 1.5 μg of the prepared STAT6 reporter gene, 1.5 μg of the STAT6 gene and 20 μl of lipofectamine (Code No. 18324-012, GIBCO BRL) were mixed in 0.3 ml OPTI-MEM medium (Code No. 31985-070) and left at room temperature for 20 minutes. Thereafter, 1.2 ml OPTI-MEM medium was further added to the cells washed with OPTI-MEM medium not containing fetal bovine serum, and the cells were cultured for 2 hours. 1.5 ml medium containing fetal bovine serum was added thereto, and the cells were cultured for additional 19 hours. The medium was exchanged with a fresh one, and Geneticin (Code No. G-5013, SIGMA) was added at a concentration of 1 mg/ml, and the cells were cultured, and chemical-resistant cells were selected. The resulting chemical-resistant cells were floated in a medium containing 1 mg/ml Geneticin, then spread at a density of 0.5 cell/well on a 96-well microplate (Code No. 35-3072, Becton Dickinson) and cloned to give a clone expressing alkali phosphatase in response to IL-4.
4) Inhibitory Test on STAT6 Activation
The cells stably expressing the STAT6 gene and STAT6 reporter gene and expressing alkali phosphatase in response to IL-4 were spread at a density of 5000 cells/180 μl/well on a 96-well microplate (Code No. 35-3072, Becton Dickinson) and cultured overnight. […]

In the case of `Fc1ccc(-c2n[nH]cc2-c2ccc3ncc(-c4ccc(Cl)s4)n3c2)cc1` [Example 70, 3-(5-Chloro-2-thienyl)-6-[3-(4-fluorophenyl)-1H-4-pyrazolyl]imidazo[1,2-a]pyridine dihydrochloride], the IC50 lay within 10 to 100 nM.
To `N#Cc1ccc(-c2cnc3ccc(-c4c[nH]nc4-c4ccc(F)cc4)cn23)s1` [Example 71, 5-{6-[3-(4-Fluorophenyl)-1H-4-pyrazolyl]imidazo[1,2-a]-pyridin-3-yl}-2-thiophene carboxynitrile dihydrochloride] belongs 10 to 100 nM.
As for `N#Cc1ccc(-c2cnc3ccc(-c4c[nH]nc4-c4ccc(F)cc4)cn23)cc1` [Example 77, 4-{6-[3-(4-Fluorophenyl)-1H-4-pyrazolyl]imidazo[1,2-a]-pyridin-3-yl}benzonitrile dihydrochloride], the figure is less than 10 nM.
To `NC(=O)c1ccc(-c2cnc3ccc(-c4c[nH]nc4-c4ccc(F)cc4)cn23)cc1` [Example 78, 4-{6-[3-(4-Fluorophenyl)-1H-4-pyrazolyl]imidazo[1,2-a]-pyridin-3-yl}benzamide dihydrochloride] belongs less than 10 nM; to `CC(=O)NCCCOc1ccc(-c2cnc3ccc(-c4c[nH]nc4-c4ccc(F)cc4)cn23)cc1` [Example 87, N-[3-(4-{6-[3-(4-Fluorophenyl)-1H-4-pyrazolyl]imidazo-[1,2-a]pyridin-3-yl}phenoxy)propyl]acetamide], less than 10 nM; to `NC(=O)[C@@H]1CCCN1Cc1ccc(-c2cnc3ccc(-c4c[nH]nc4-c4ccc(F)cc4)cn23)s1` [Example 92, (2S)-1-[(5-{6-[3-(4-Fluorophenyl)-1H-4-pyrazolyl]-imidazo-[1,2-a]pyridin-3-yl}-2-thienyl)methyl]tetrahydro-1H-2-pyrrole carboxyamide trihydrochloride], less than 10 nM.
For the compound `CS(=O)(=O)c1ccc(-c2n[nH]cc2-c2ccc3ncc(-c4ccc(F)cc4)n3c2)cc1` [Example 101, 3-(4-Fluorophenyl)-6-{3-[4-(methylsulfonyl)phenyl]-1H-4-pyrazolyl}imidazo[1,2-a]pyridine dihydrochloride], the IC50 fell in the range of 10 to 100 nM.
As for `CS(=O)(=O)c1ccc(-c2n[nH]cc2-c2ccc3ncc(-c4ccc(C#N)cc4)n3c2)cc1` [Example 102, 4–6-(3-[4-(Methylsulfonyl)phenyl]-1H-4-pyrazolyl}imidazo-[1,2-a]pyridin-3-yl)benzonitrile dihydrochloride], the figure is 10 to 100 nM; as for `N#Cc1ccc(-c2n[nH]cc2-c2ccc3ncc(-c4ccc(C(N)=O)cc4)n3c2)cc1` [Example 108, 4-{6-[3-(4-Cyanophenyl)-1H-4-pyrazolyl]imidazo[1,2-a]-pyridin-3-yl}benzamide dihydrochloride], less than 10 nM.
To `N#Cc1ccc(-c2n[nH]cc2-c2ccc3ncc(-c4ccc(CN5CCC[C@H]5C(N)=O)s4)n3c2)cc1` [Example 109, (2S)-1-{[(5-{6-[3-(4-Cyanophenyl)-1H-4-pyrazolyl]imidazo-[1,2-a]pyridin-3-yl}-2-thienyl)methyl]tetrahydro-1H-2-pyrrolecarboxyamidetrihydrochloride] belongs less than 10 nM; to `O=C(c1ccc(-c2n[nH]cc2-c2ccc3ncc(-c4ccccn4)n3c2)cc1)N1CCOCC1` [Example 115, Morpholino(4-{4-[3-(2-pyridyl)imidazo[1,2-a]pyridin-6-yl]-1H-3-pyrazolyl}phenyl)methanone], less than 10 nM; to `Cc1n[nH]cc1-c1ccc2ncc(-c3ccc(CN4CCC[C@H]4C(N)=O)s3)n2c1` [Example 120, (2S)-1-({5-[6-(3-Methyl-1H-4-pyrazolyl)imidazo[1,2-a]-pyridin-3-yl]-2-thienyl}methyl)tetrahydro-1H-2-pyrrole carboxyamide trihydrochloride], less than 10 nM.
To `N#Cc1ccc(-c2n[nH]cc2-c2ccc3ncn(-c4ccc(C#N)cn4)c3c2)cc1` [Example 148, 6-{6-[3-(4-Cyanophenyl)-1H-4-pyrazolyl]-1H-benzo[d]-imidazol-1-yl}nicotinonitrile trihydrochloride] belongs less than 10 nM.
In the case of `CN1CCN(c2ccnc3ccc(-c4c[nH]nc4-c4ccc(F)cc4)cc23)CC1` [Example 203, 6-[3-(4-Fluorophenyl)-1H-4-pyrazolyl]-4-(4-methylpiperazin-1-yl)quinoline dihydrochloride], the IC50 fell in the range of 10 to 100 nM.
Take `Cc1n[nH]cc1-c1ccc2nccc(N3CCN(C(=O)Nc4ccccc4)CC3)c2c1` [Example 212, N-Phenyl-4-[6-(3-methyl-1H-4-pyrazolyl)-4-quinolyl]-1-piperazine carboxamide dihydrochloride]: the IC50 was less than 10 nM.
As to `O=C(N1CCCC1)N1CCN(c2ccnc3ccc(-c4c[nH]nc4C(F)(F)F)cc23)CC1` [Example 224, Tetrahydro-1H-1-pyrrolyl{4-[6-(3-trifluoromethyl-1H-pyrazolyl)-4-quinolyl]piperazin-1-yl}methanone], the IC50 was less than 10 nM.
To `Cc1n[nH]cc1-c1ccc2nccc(N3CCN(C(=O)N(C)CCN(C)C)CC3)c2c1` [Example 227, N-[2-(Dimethylamino)ethyl]-N-methyl-4-[6-(3-methyl-1H-4-pyrazolyl)-4-quinolyl]-1-piperazine carboxamide dihydrochloride] belongs 10 to 100 nM.
To `COC1CCN(c2ccnc3ccc(-c4c[nH]nc4C)cc23)CC1` [Example 230, 4-(4-Methoxypiperidino)-6-(3-methyl-1H-4-pyrazolyl)quinoline dihydrochloride] belongs less than 10 nM; to `Cc1n[nH]cc1-c1ccc2nccc(N3CCC(Oc4ccc(S(C)(=O)=O)cc4)CC3)c2c1` [Example 239, 6-(3-Methyl-1H-4-pyrazolyl)-4-{4-[4-(methylsulfonyl)-phenoxy]piperidino}quinoline dihydrochloride], less than 10 nM; to `COc1ccc(-c2ncnc3ccc(-c4c[nH]nc4-c4ccc(F)cc4)cc23)cc1` [Example 254, 6-[3-(4-Fluorophenyl)-1H-4-pyrazolyl]-4-[4-(methoxyphenyl)-quinazolinedihydrochloride], 10 to 100 nM.
To `COc1ccc(-c2n[nH]cc2-c2ccc3ncnc(-c4ccc(S(C)(=O)=O)s4)c3c2)cc1OC` [Example 261, 6-[3-(3,4-Dimethoxyphenyl)-1H-4-pyrazolyl]-4-[5-(methylsulfonyl)-2-thienyl]quinazoline dihydrochloride] belongs 100 to 1000 nM; to `FC(F)(F)c1cccc(N2CCN(c3ncnc4ccc(-c5cn[nH]c5)cc34)CC2)c1` [Example 265, 6-(1H-4-Pyrazolyl)-4-{4-[3-(trifluoromethyl)phenyl]-piperazin-1-yl}quinazoline trihydrochloride], 10 to 100 nM.
On to `Clc1ccccc1N1CCN(c2ncnc3ccc(-c4cn[nH]c4)cc23)CC1` [Example 287, 4-[4-(2-Chlorophenyl)piperazin-1-yl]-6-(1H-4-pyrazolyl)-quinazoline], for which the IC50 lay in the range of 10 to 100 nM.
As for `CN(C(=O)N1CCOCC1)c1ccc(-c2n[nH]cc2-c2ccc3ncc(-c4ccccn4)n3c2)cc1` [Example 534, Morpholine-4-carboxylic acid methyl(4-[4-(3-pyridin-2-ylimidazo[1,2-a]pyridin-6-yl)-1H-pyrazol-3-yl]phenyl} amide], the figure is less than 10 nM.
